Assay results as given in the NIST ThermoML archive (doi:10.1016/j.jct.2018.08.036).
Where “and” joins values, the source holds several entries; their conditions need not be identical. Equal entries are not always repeated. ± gives the expanded uncertainty stated by the source.

Columns and labels:
[1] = xn = mol fraction of the nth substance listed; details: 100 kPa, Liquid, x1 = 1; for viscosity: Falling or rolling sphere viscometry; for speed of sound: Frequency=3 MHz, Single path-length method; for mass density: Vibrating tube method
[2] = refractive index (Na D-line) (dimensionless); xn = mol fraction of the nth substance listed; details: 100 kPa, Liquid, Standard Abbe refractometry, x1 = 1
[3] = 100 kPa, Liquid; for speed of sound: Frequency=3 MHz, Single path-length method; for mass density: Vibrating tube method; for viscosity: Falling or rolling sphere viscometry
[4] = refractive index (Na D-line) (dimensionless); details: 100 kPa, Liquid, Standard Abbe refractometry

Structure (SMILES)	viscosity ([1]; 298.15 K)	speed of sound ([1]; 298.15 K)	speed of sound ([3]; 293.15 K)	mass density ([3]; 293.15 K)	viscosity ([3]; 298.15 K)	speed of sound ([3]; 298.15 K)	mass density ([3]; 298.15 K)	viscosity ([3]; 308.15 K)	speed of sound ([3]; 308.15 K)	mass density ([3]; 308.15 K)	viscosity ([3]; 318.15 K)	speed of sound ([3]; 318.15 K)	mass density ([3]; 318.15 K)	speed of sound ([3]; 323.15 K)	mass density ([3]; 323.15 K)	refractive index ([4]; 293.15 K)	refractive index ([4]; 298.15 K)	refractive index ([4]; 308.15 K)	refractive index ([4]; 318.15 K)	refractive index ([4]; 323.15 K)	also measured
CCCCCCCCCCCCCCCC [hexadecane] + CCCc1ccccc1	2.968 ± 0.064 mPa·s	1338.6 ± 1 m/s																			mass density ([1]; 298.15 K): 769.86 ± 0.42 kg/m3; viscosity ([1]; 308.15 K): 2.389 ± 0.063 mPa·s; speed of sound ([1]; 308.15 K): 1301.3 ± 1 m/s; mass density ([1]; 308.15 K): 762.94 ± 0.42 kg/m3; viscosity ([1]; 318.15 K): 1.971 ± 0.062 mPa·s; speed of sound ([1]; 318.15 K): 1264.6 ± 1 m/s; mass density ([1]; 318.15 K): 755.99 ± 0.42 kg/m3; refractive index ([2]; 298.15 K): 1.4324 ± 0.0004; refractive index ([2]; 308.15 K): 1.4283 ± 0.0004; refractive index ([2]; 318.15 K): 1.4241 ± 0.0004
CCCCCCCCCCCCCCCC [hexadecane] + CCC(C)c1ccccc1	3.035 ± 0.064 mPa·s	1338.5 ± 1 m/s																			mass density ([1]; 298.15 K): 769.81 ± 0.42 kg/m3; viscosity ([1]; 308.15 K): 2.439 ± 0.063 mPa·s; speed of sound ([1]; 308.15 K): 1301.2 ± 1 m/s; mass density ([1]; 308.15 K): 762.89 ± 0.42 kg/m3; viscosity ([1]; 318.15 K): 2.008 ± 0.062 mPa·s; speed of sound ([1]; 318.15 K): 1264.7 ± 1 m/s; mass density ([1]; 318.15 K): 755.98 ± 0.42 kg/m3; refractive index ([2]; 298.15 K): 1.4324 ± 0.0004; refractive index ([2]; 308.15 K): 1.4283 ± 0.0004; refractive index ([2]; 318.15 K): 1.4241 ± 0.0004
CCC(C)c1ccccc1 (centres undefined) [(1-methylpropyl)benzene]			1333.8 ± 1 m/s	861.95 ± 0.42 kg/m3	0.912 ± 0.021 mPa·s	1313.8 ± 1 m/s	857.89 ± 0.42 kg/m3	0.796 ± 0.021 mPa·s	1274.5 ± 1 m/s	849.78 ± 0.42 kg/m3	0.707 ± 0.021 mPa·s	1235.7 ± 1 m/s	841.64 ± 0.42 kg/m3	1216.1 ± 1 m/s	837.48 ± 0.42 kg/m3	1.49 ± 0.0004	1.4876 ± 0.0004	1.4827 ± 0.0004	1.4778 ± 0.0004	1.4753 ± 0.0004	
CCCCCCCCCCCCCCCC [hexadecane]			1357.5 ± 1 m/s	773.33 ± 0.42 kg/m3	2.968 ± 0.064 mPa·s and 3.035 ± 0.065 mPa·s	1338.6 ± 1 m/s and 1338.5 ± 1 m/s	769.86 ± 0.42 kg/m3 and 769.81 ± 0.42 kg/m3	2.389 ± 0.063 mPa·s and 2.439 ± 0.063 mPa·s	1301.3 ± 1 m/s and 1301.2 ± 1 m/s	762.94 ± 0.42 kg/m3 and 762.89 ± 0.42 kg/m3	1.971 ± 0.062 mPa·s and 2.008 ± 0.062 mPa·s	1264.6 ± 1 m/s and 1264.7 ± 1 m/s	755.99 ± 0.42 kg/m3 and 755.98 ± 0.42 kg/m3	1246.6 ± 1 m/s	752.58 ± 0.42 kg/m3	1.4345 ± 0.0004	1.4324 ± 0.0004	1.4283 ± 0.0004	1.4241 ± 0.0004	1.422 ± 0.0004	viscosity ([3]; 293.15 K): 3.341 ± 0.065 mPa·s; viscosity ([3]; 303.15 K): 2.656 ± 0.064 mPa·s; speed of sound ([3]; 303.15 K): 1319.9 ± 1 m/s; mass density ([3]; 303.15 K): 766.4 ± 0.42 kg/m3; viscosity ([3]; 313.15 K): 2.164 ± 0.062 mPa·s; speed of sound ([3]; 313.15 K): 1282.9 ± 1 m/s; mass density ([3]; 313.15 K): 759.48 ± 0.42 kg/m3; viscosity ([3]; 323.15 K): 1.8 ± 0.062 mPa·s; refractive index ([4]; 303.15 K): 1.4304 ± 0.0004; refractive index ([4]; 313.15 K): 1.4261 ± 0.0004
CCCc1ccccc1 [propylbenzene]			1341.5 ± 0.6 m/s	862.72 ± 0.22 kg/m3	0.792 ± 0.021 mPa·s	1320.6 ± 0.6 m/s	858.45 ± 0.22 kg/m3	0.699 ± 0.021 mPa·s	1280.6 ± 0.6 m/s	850.01 ± 0.22 kg/m3	0.626 ± 0.021 mPa·s	1241 ± 0.6 m/s	841.53 ± 0.22 kg/m3	1221.5 ± 0.6 m/s	837.31 ± 0.22 kg/m3	1.4921 ± 0.0004	1.4896 ± 0.0004	1.4844 ± 0.0004	1.4792 ± 0.0004	1.4766 ± 0.0004	viscosity ([3]; 288.15 K): 0.924 ± 0.021 mPa·s; viscosity ([3]; 293.15 K): 0.846 ± 0.021 mPa·s; viscosity ([3]; 303.15 K): 0.742 ± 0.021 mPa·s; speed of sound ([3]; 303.15 K): 1300.4 ± 0.6 m/s; mass density ([3]; 303.15 K): 854.28 ± 0.22 kg/m3; viscosity ([3]; 313.15 K): 0.655 ± 0.021 mPa·s; speed of sound ([3]; 313.15 K): 1260.9 ± 0.6 m/s; mass density ([3]; 313.15 K): 845.81 ± 0.22 kg/m3; viscosity ([3]; 323.15 K): 0.601 ± 0.02 mPa·s; refractive index ([4]; 303.15 K): 1.487 ± 0.0004; refractive index ([4]; 313.15 K): 1.4818 ± 0.0004
